The values that follow are results of earlier work, collected in paper PMC9301717 (ACS Omega, 2022).

The subject of data set [1] is IDE.
Data set [2] relates to IDE. This is another data set of the same source.

For `Oc1ccc(/C=C/c2cc(O)cc(O)c2)cc1` [resveratrol], in the data set on IDE [1], the “effect on IDE's activity toward Aβ42” value was “sustains”. Also, in the data set with IDE [2], the “effect on the enzyme's ability to degrade insulin” value is reported as “has no effect”.
